pEC50, pIC50: −log10 of the molar value.
Key:
Human orthopneumovirus = assay: Antiviral activity against Human respiratory syncytial virus; format: functional, organism-based
[1] = Cytotoxicity against human MT4 cells; format: cell-based
[2] = Cytotoxicity against human Hep2 cells; format: cell-based, HEp-2
[3] = Inhibition of Human respiratory syncytial virus RNP

Row | Compound | pEC50 (Human orthopneumovirus) | pIC50 [3] | CC50 [1] | CC50 [2]
1 | CC(C)(C)C(=O)SCCOP(=O)(OCCSC(=O)C(C)(C)C)OC[C@@]1(C#N)O[C@@H](c2ccc3c(N)ncnn23)[C@H](O)[C@@H]1O | 6.00 | – | 7.3 µM | 39 µM
2 | N#C[C@]1(CO)O[C@@H](c2cc(F)c3c(N)ncnn23)[C@H](O)[C@@H]1O | 5.04 | – | > 93 µM | > 100 µM
3 | [N-]=[N+]=N[C@]1(CO)O[C@@H](c2ccc3c(N)nc(F)nn23)[C@H](F)[C@@H]1O | 6.24 | – | 32 µM | > 100 µM

Second part, led by results:

Row | pEC50 (Human orthopneumovirus) | pIC50 [3] | Compound | CC50 [1] | CC50 [2]
4 | 5.02 | – | C#C[C@]1(CO)O[C@@H](c2ccc3c(N)ncnn23)[C@H](F)[C@@H]1O | > 106 µM | > 100 µM
5 | 5.14 | – | N#C[C@]1(CO)O[C@@H](c2ccc3c(N)ncnn23)[C@H](O)[C@@H]1O | > 53 µM | > 50 µM
6 | – | 6.00 | C#C[C@]1(COP(=O)(O)OP(=O)(O)OP(=O)(O)O)O[C@@H](c2ccc3c(N)ncnn23)[C@H](F)[C@@H]1O | – | –

Reference: ChEMBL document CHEMBL3608287, “Potential Treatment for the Respiratory Syncytial Virus Infections (HRSV)” (ACS Med Chem Lett, 2015)
